Results reported in US11702422B2, “Imidazopyridazines as modulators of IL-17” (Janssen Pharmaceutica NV, priority 2020, dated 2023).

What was measured:
[1] = target: IL-17A(FLAG-Tagged): IL-17RA(His-Tagged) (Homo sapiens, UniProt Q16552, K93Q); assay: IL-17A(FLAG-Tagged): IL-17RA(His-Tagged) Binding Disruption Eu-HTRF Assay; details: IL-17A/IL-17RA binding disruption, simple average if tested more than once
Procedure, shortened: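 IC50 comes from a one-site competition fit of the HTRF 665/620 nm ratio. Compound dilutions (2-fold, 22 points) were held 1 h rt with FLAG-tagged IL-17A dimer, then His-tagged IL-17RA plus Eu-cryptate anti-FLAG and D2 anti-His antibodies were added for 2 h rt.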

[2] = tested on: IL-17A-induced G-CSF production in human normal keratinocyte (NHK); assay: NHK Assay: IL-17A-induced G-CSF production in human normal keratinocytes; assay type: cell-based; details: 24 h, adult normal human keratinocytes, IL-17A 5 ng/mL, simple average if tested more than once
Procedure, shortened: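 IL-17A (5 ng/mL final) was pre-incubated 1 h at rt with titrated compound and then added to adult normal human keratinocytes (5% FBS, 0.2% DMSO) for 24 h at 37° C. Supernatant G-CSF was measured by HTRF against a standard curve to derive IC50. Viability was checked by CellTiter-Glo.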

UniProt Q16552, sequence (Q16552 with tags, fused parts or gaps K93Q): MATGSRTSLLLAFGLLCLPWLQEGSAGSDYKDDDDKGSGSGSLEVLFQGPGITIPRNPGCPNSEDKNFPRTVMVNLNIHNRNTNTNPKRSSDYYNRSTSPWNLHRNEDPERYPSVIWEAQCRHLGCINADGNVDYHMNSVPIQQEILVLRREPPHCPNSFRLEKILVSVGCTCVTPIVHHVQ

Structure (SMILES)	IC50 [1] [nM]	IC50 ([2]; Homo sapiens, Keratinocyte) [nM]	IC50 [2] [nM]
O=C(CC1CC(F)(F)C1)N[C@@H](c1cnn2cc([C@@H](NC(=O)c3nonc3C3CC3)C3CCC(F)(F)CC3)nc2c1)C1CC1 [Example 289, 4-Cyclopropyl-N—((S)-(7-((R)-cyclopropyl(2-(3,3-difluorocyclobutyl)acetamido)methyl)imidazo[1,2-b]pyridazin-2-yl)(4,4-difluorocyclohexyl)methyl)-1,2,5-oxadiazole-3-carboxamide]	37	23	
O=C(CCC(F)F)N[C@@H](c1cnn2cc([C@@H](NC(=O)c3conc3COC(F)F)C3CCC(F)(F)CC3)nc2c1)C1CC1 [Example 287, N—((S)-(7-((R)-Cyclopropyl(4,4-difluorobutanamido)methyl)imidazo[1,2-b]pyridazin-2-yl)(4,4-difluorocyclohexyl)methyl)-3-((difluoromethoxy)methyl)isoxazole-4-carboxamide]	140	410	
Cc1c(C(=O)N[C@H](c2cn3ncc(C(NC(=O)CC4CC(F)(F)C4)C4CC4)cc3n2)C2CCC(F)(F)CC2)cnn1CCC(F)(F)F (single isomer, unassigned) [Example 51, N—((S)-(7-((S*)-Cyclopropyl(2-(3,3-difluorocyclobutyl)acetamido)methyl)imidazo[1,2-b]pyridazin-2-yl)(4,4-difluorocyclohexyl)methyl)-5-methyl-1-(3,3,3-trifluoropropyl)-1H-pyrazole-4-carboxamide]	12000		~18000
[2H]C([2H])([2H])C([2H])([2H])n1nccc1C(=O)N[C@H](c1cn2ncc(C(COC)NC(=O)CC3CC(F)(F)C3)cc2n1)C1CCC(F)(F)CC1 (single isomer, unassigned) [Example 522, N—((S)-(7-((S*)-1-(2-(3,3-Difluorocyclobutyl)acetamido)-2-methoxyethyl)imidazo[1,2-b]pyridazin-2-yl)(4,4-difluorocyclohexyl)methyl)-1-(ethyl-d5)-1H-pyrazole-5-carboxamide]	2200		3600
CC(C)n1nccc1C(=O)N[C@H](c1cn2ncc([C@H](NC(=O)CC34CC(F)(C3)C4)C3CC3)cc2n1)C1CCC(F)(F)CC1 [Example 273, N—((S)-(7-((R)-Cyclopropyl(2-(3-fluorobicyclo[1.1.1]pentan-1-yl)acetamido)methyl)imidazo[1,2-b]pyridazin-2-yl)(4,4-difluorocyclohexyl)methyl)-1-isopropyl-1H-pyrazole-5-carboxamide]	160	71	
O=C(CCC(F)(F)F)N[C@@H](c1cnn2cc([C@@H](NC(=O)[C@H]3C[C@H]3C(F)F)C3CCC(F)(F)CC3)nc2c1)C1CC1 (relative stereo) [Example 359, (1S*,2R*)—N—((S)-(7-((R*)-Cyclopropyl(4,4,4-trifluorobutanamido)methyl)imidazo[1,2-b]pyridazin-2-yl)(4,4-difluorocyclohexyl)methyl)-2-(difluoromethyl)cyclopropane-1-carboxamide]	1100	10000	
O=C(CCC(F)(F)F)N[C@@H](c1cnn2cc([C@@H](NC(=O)c3cncc(C(F)F)c3)C3CCC(F)(F)CC3)nc2c1)C1CC1 [Example 455, N—((S)-(7-((R)-Cyclopropyl(4,4,4-trifluorobutanamido)methyl)imidazo[1,2-b]pyridazin-2-yl)(4,4-difluorocyclohexyl)methyl)-5-(difluoromethyl)nicotinamide]	130	850	
Cc1nonc1C(=O)N[C@H](c1cn2ncc([C@H](NC(=O)[C@@]34C[C@@H](F)[C@@H]3C4)C3CC3)cc2n1)C1CCC(F)(F)CC1 (relative stereo) [Example 340, N—((S)-(7-((R)-Cyclopropyl((1S*,3R*,4R*)-3-fluorobicyclo[2.1.0]pentane-1-carboxamido)methyl)imidazo[1,2-b]pyridazin-2-yl)(4,4-difluorocyclohexyl)methyl)-4-methyl-1,2,5-oxadiazole-3-carboxamide]	8600	> 20000	
O=C(CC1CC(F)(F)C1)N[C@@H](c1cnn2cc([C@@H](NC(=O)c3nonc3CN3CC(F)C3)C3CCC(F)(F)CC3)nc2c1)C1CC1 [Example 407, N—((S)-(7-((R)-Cyclopropyl(2-(3,3-difluorocyclobutyl)acetamido)methyl)imidazo[1,2-b]pyridazin-2-yl)(4,4-difluorocyclohexyl)methyl)-4-((3-fluoroazetidin-1-yl)methyl)-1,2,5-oxadiazole-3-carboxamide]	240	97	
C[C@@H](CC(=O)N[C@@H](c1cnn2cc([C@@H](NC(=O)[C@@H]3C[C@H]3C(F)(F)F)C3CCC(F)(F)CC3)nc2c1)C1CC1)C(F)(F)F (relative stereo) [Example 242, (trans-1R*,2R*)—N—((S)-(7-((R)-Cyclopropyl((S*)-4,4,4-trifluoro-3-methylbutanamido)methyl)imidazo[1,2-b]pyridazin-2-yl)(4,4-difluorocyclohexyl)methyl)-2-(trifluoromethyl)cyclopropane-1-carboxamide]	1300	790	
O=C(CCC(F)(F)F)N[C@@H](c1cnn2cc([C@@H](NC(=O)c3nonc3OCC(F)(F)F)C3CCC(F)(F)CC3)nc2c1)C1CC1 [Example 382, N—((S)-(7-((R)-Cyclopropyl(4,4,4-trifluorobutanamido)methyl)imidazo[1,2-b]pyridazin-2-yl)(4,4-difluorocyclohexyl)methyl)-4-(2,2,2-trifluoroethoxy)-1,2,5-oxadiazole-3-carboxamide]	51	11	
O=C(CC1CC(F)(F)C1)N[C@@H](c1cnn2cc([C@@H](NC(=O)c3nonc3C(O)C3CC3)C3CCC(F)(F)CC3)nc2c1)C1CC1 (single isomer, unassigned) [Example 401, N—((S)-(7-((R)-Cyclopropyl(2-(3,3-difluorocyclobutyl)acetamido)methyl)imidazo[1,2-b]pyridazin-2-yl)(4,4-difluorocyclohexyl)methyl)-4-((R*)-cyclopropyl(hydroxy)methyl)-1,2,5-oxadiazole-3-carboxamide]	150	57	
COc1ccnc(C(=O)N[C@H](c2cn3ncc([C@H](NC(=O)CCC(F)(F)F)C4CC4)cc3n2)C2CCC(F)(F)CC2)c1 [Example 196, N—((S)-(7-((R)-Cyclopropyl(4,4,4-trifluorobutanamido)methyl)imidazo[1,2-b]pyridazin-2-yl)(4,4-difluorocyclohexyl)methyl)-4-methoxypicolinamide]	480	1700	
CC(C)(OC[C@H](NC(=O)c1nonc1C1CC1)c1cn2ncc([C@H](NC(=O)CC3CC(F)(F)C3)C3CC3)cc2n1)C(F)(F)F [Example 321, 4-Cyclopropyl-N—((R)-1-(7-((R)-cyclopropyl(2-(3,3-difluorocyclobutyl)acetamido)methyl)imidazo[1,2-b]pyridazin-2-yl)-2-((1,1,1-trifluoro-2-methylpropan-2-yl)oxy)ethyl)-1,2,5-oxadiazole-3-carboxamide]	17	32	
O=C(CCC(F)(F)F)N[C@@H](c1cnn2cc([C@@H](NC(=O)c3cc(C4CC4)ccn3)C3CCC(F)(F)CC3)nc2c1)C1CC1 [Example 460, 4-Cyclopropyl-N—((S)-(7-((R)-cyclopropyl(4,4,4-trifluorobutanamido)methyl)imidazo[1,2-b]pyridazin-2-yl)(4,4-difluorocyclohexyl)methyl)picolinamide]	110	1100	
CC(C)n1nccc1C(=O)N[C@H](c1cn2ncc(C(CO)NC(=O)CC3CC(F)(F)C3)cc2n1)C1CCC(F)(F)CC1 (single isomer, unassigned) [Example 533, N—((S)-(7-((S*)-1-(2-(3,3-Difluorocyclobutyl)acetamido)-2-hydroxyethyl)imidazo[1,2-b]pyridazin-2-yl)(4,4-difluorocyclohexyl)methyl)-1-isopropyl-1H-pyrazole-5-carboxamide]	480		150
CC(n1nccc1C(=O)N[C@H](c1cn2ncc([C@H](NC(=O)CCC(F)(F)F)C3CC3)cc2n1)C1CCC(F)(F)CC1)C(F)(F)F (single isomer, unassigned) [Example 115, N—((S)-(7-((R)-Cyclopropyl(4,4,4-trifluorobutanamido)methyl)imidazo[1,2-b]pyridazin-2-yl)(4,4-difluorocyclohexyl)methyl)-1-((R*)-1,1,1-trifluoropropan-2-yl)-1H-pyrazole-5-carboxamide]	190	140	
O=C(CC1CC(F)(F)C1)N[C@@H](c1cnn2cc([C@@H](NC(=O)c3nonc3C(F)F)C3CCC(F)(F)CC3)nc2c1)C1CC1 [Example 413, N—((S)-(7-((R)-Cyclopropyl(2-(3,3-difluorocyclobutyl)acetamido)methyl)imidazo[1,2-b]pyridazin-2-yl)(4,4-difluorocyclohexyl)methyl)-4-(difluoromethyl)-1,2,5-oxadiazole-3-carboxamide]	61	170	
Cc1c(C(=O)N[C@H](c2cn3ncc(C(NC(=O)CCC(F)(F)F)C4CC4)cc3n2)C2CCC(F)(F)CC2)cnn1CCC(F)(F)F (single isomer, unassigned) [Example 53, N—((S)-(7-((S*)-Cyclopropyl(4,4,4-trifluorobutanamido)methyl)imidazo[1,2-b]pyridazin-2-yl)(4,4-difluorocyclohexyl)methyl)-5-methyl-1-(3,3,3-trifluoropropyl)-1H-pyrazole-4-carboxamide]	11000		> 20000
